Experimental data: US20180201592A1, “2-AMINO-1,3,4-THIADIAZINE AND 2-AMINO-1,3,4-OXADIAZINE BASED ANTIFUNGAL AGENTS” (F2G Limited, priority 2015, published 2018)

Assays:
Conditions in all cases: banded MIC grade
Aspergillus fumigatus = assay: Minimum inhibitory concentration, YAG medium; type: cell-based
Procedure, shortened: (§1)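 MICs (mg/L) reflect >70% inhibition of OD485 growth versus untreated control after 24 hrs at 35° C in YAG medium, spore inoculum 1-2×10^4 cfu/mL, drug range 50-0.05 mg/L.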

Aspergillus flavus = assay: Minimum inhibitory concentration, YAG medium; type: cell-based
Procedure, shortened: (§2)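 Growth inhibition was read as absorbance at 485 nm after spores of Aspergillus spp. were exposed for 24 hrs at 35° C to doubling dilutions of the compound. Dilutions were made in water starting from a 5 mg/mL DMSO stock, and MIC values were expressed in mg/L.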

Aspergillus terreus = assay: Minimum inhibitory concentration, YAG medium; type: cell-based
Procedure, shortened: as §2

Aspergillus niger = assay: Minimum inhibitory concentration, YAG medium; type: cell-based
Procedure, shortened: as §2

A. fumigatus 210 [1] = assay: Minimum inhibitory concentration, YAG medium; type: cell-based, Aspergillus fumigatus
Procedure, shortened: as §1

A. fumigatus 210 [2] = assay: Minimum inhibitory concentration, RPMI medium; type: cell-based
Experimental: (§3) Between 1 and 5 mgs of compound were accurately weighed out into a sterile Eppendorf tube. The compound was dissolved in DMSO to give a solution containing 5 mg/mL. Tubes were stored at −20° C. until required.
(§4) On the day of testing thawed solutions were vortex mixed to ensure homogeneity. 30 μL of solution was removed and added to 570 μL of sterile water in a separate sterile Eppendorf. The thoroughly mixed solution was used to prepare a series of doubling dilutions in water, in a deep well plate. Thirteen replicate plates were prepared using a Minitrak by aspirating 20 μL from each well into eleven clear polystyrene 96 well plates.
(§5) Assays were also performed in RPMI medium (Roswell Park Memorial Media 1640). To perform MIC tests in this medium, dilutions of compounds are prepared in microtitre plates as described above. Fungal strains to be tested are grown and harvested in an identical manner to that described above, and each organism suspension was diluted in RPMI medium, typically containing 2% glucose and 0.135 M MOPS buffer (pH 7.0) to 0.5-2×10^4cfu/mL, rather than in YAG medium. 80 μL of an organism suspension was added to each well of the plate containing drug dilutions.
(§6) This produced MIC plates with a drug range 50-0.05 mg/L and organism inocula of 1-2×10^4 cfu/mL. All plates were incubated for 24-48 hrs at 35° C. Growth was assessed by monitoring the optical density at 485 nm for each well. The MIC of a compound is the lowest drug concentration that inhibits growth of an organism by >80% compared with a drug free control. The following organisms were tested: C. albicans, C. parapsilosis, C. tropicalis, C. glabrata, C. krusei, A. niger, A. fumigatus, A. terreus, A. flavus, A. terreus 49, and A. fumigatus 210.

A. fumigatus = assay: Minimum inhibitory concentration, RPMI medium; type: cell-based
Experimental: as §3, §4, §5, §6

A. terreus 49 [3] = assay: Minimum inhibitory concentration, YAG medium; type: cell-based, Aspergillus terreus
Procedure, shortened: as §2

C. krusei = assay: Minimum inhibitory concentration, RPMI medium; type: cell-based
Procedure, shortened: (§7)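 Growth inhibition was judged from optical density at 485 nm per well after 24-48 hrs at 35° C. Test compound came from a 5 mg/mL DMSO stock, serially doubled in water before testing in RPMI 1640.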

A. niger = assay: Minimum inhibitory concentration, RPMI medium; type: cell-based
Procedure, shortened: as §7

A. terreus = assay: Minimum inhibitory concentration, RPMI medium; type: cell-based
Procedure, shortened: as §7

C. tropicalis = assay: Minimum inhibitory concentration, RPMI medium; type: cell-based
Procedure, shortened: as §7

C. albicans = assay: Minimum inhibitory concentration, RPMI medium; type: cell-based
Procedure, shortened: as §7

C. glabrata = assay: Minimum inhibitory concentration, RPMI medium; type: cell-based
Procedure, shortened: as §7

C. parapsilosis = assay: Minimum inhibitory concentration, RPMI medium; type: cell-based
Procedure, shortened: as §7

A. flavus = assay: Minimum inhibitory concentration, RPMI medium; type: cell-based
Procedure, shortened: as §7

A. terreus 49 [4] = assay: Minimum inhibitory concentration, RPMI medium; type: cell-based
Procedure, shortened: as §7

Structure (SMILES)	MIC grade, A. FUMIGATUS, YAG media (Aspergillus fumigatus)	MIC grade, A. FLAVUS, YAG media (Aspergillus flavus)	MIC grade, A. TERREUS, YAG media (Aspergillus terreus)	MIC grade, A. NIGER, YAG media (Aspergillus niger)	MIC grade, A. FUMIGATUS 210, YAG media (A. fumigatus 210 [1])	MIC grade, A. FUMIGATUS 210, RPMI media (A. fumigatus 210 [2])	MIC grade, A. FUMIGATUS, RPMI media (A. fumigatus)	MIC grade, A. TERREUS 49, YAG media (A. terreus 49 [3])	MIC grade, C. KRUSEI, RPMI media (C. krusei)	MIC grade, A. NIGER, RPMI media (A. niger)	MIC grade, A. TERREUS, RPMI media (A. terreus)	MIC grade, C. TROPICALIS, RPMI media (C. tropicalis)	MIC grade, C. ALBICANS, RPMI media (C. albicans)	MIC grade, C. GLABRATA, RPMI media (C. glabrata)	MIC grade, C. PARAPSILOSIS, RPMI media (C. parapsilosis)	MIC grade, A. FLAVUS, RPMI media (A. flavus)	MIC grade, A. TERREUS 49, RPMI media (A. terreus 49 [4])
CC(=O)OCCCCC1=NN=C(N)SC1	4 (4: <0.2 mg/L)	4 (4: <0.2 mg/L)	4 (4: <0.2 mg/L)	3 (3: 0.2-1 mg/L)	4 (4: <0.2 mg/L)	3 (3: 1-5 mg/L)	3 (3: 1-5 mg/L)	4 (4: <0.2 mg/L)	4 (4: <1 mg/L)	2 (2: 5-20 mg/L)	3 (3: 1-5 mg/L)	3 (3: 1-5 mg/L)	3 (3: 1-5 mg/L)	2 (2: 5-20 mg/L)	4 (4: <1 mg/L)	3 (3: 1-5 mg/L)	3 (3: 1-5 mg/L)
NC1=NN=C(CCCCOCCc2ccccc2)CS1	3 (3: 0.2-1 mg/L)	4 (4: <0.2 mg/L)	3 (3: 0.2-1 mg/L)	3 (3: 0.2-1 mg/L)	3 (3: 0.2-1 mg/L)	1 (1: ≥20 mg/L)	2 (2: 5-20 mg/L)	3 (3: 0.2-1 mg/L)	3 (3: 1-5 mg/L)	2 (2: 5-20 mg/L)	2 (2: 5-20 mg/L)	3 (3: 1-5 mg/L)	3 (3: 1-5 mg/L)	2 (2: 5-20 mg/L)	3 (3: 1-5 mg/L)	3 (3: 1-5 mg/L)	2 (2: 5-20 mg/L)
NC1=NN=C(CCCCOCCCc2ccc(F)cc2F)CS1	3 (3: 0.2-1 mg/L)	4 (4: <0.2 mg/L)	3 (3: 0.2-1 mg/L)	3 (3: 0.2-1 mg/L)	3 (3: 0.2-1 mg/L)	1 (1: ≥20 mg/L)	2 (2: 5-20 mg/L)	3 (3: 0.2-1 mg/L)	4 (4: <1 mg/L)	2 (2: 5-20 mg/L)	2 (2: 5-20 mg/L)	3 (3: 1-5 mg/L)	4 (4: <1 mg/L)	2 (2: 5-20 mg/L)	4 (4: <1 mg/L)	3 (3: 1-5 mg/L)	2 (2: 5-20 mg/L)
NC1=NN=C(CCCCOCc2cccc(CCc3ccccc3)c2)CS1	2 (2: 1-5 mg/L)	2 (2: 1-5 mg/L)	2 (2: 1-5 mg/L)	2 (2: 1-5 mg/L)	1 (1: ≥5 mg/L)	1 (1: ≥20 mg/L)	1 (1: ≥20 mg/L)	2 (2: 1-5 mg/L)	2 (2: 5-20 mg/L)	1 (1: ≥20 mg/L)	1 (1: ≥20 mg/L)	2 (2: 5-20 mg/L)	2 (2: 5-20 mg/L)	1 (1: ≥20 mg/L)	2 (2: 5-20 mg/L)	2 (2: 5-20 mg/L)	1 (1: ≥20 mg/L)
NC1=NN=C(CCCCOCc2cccc(C(F)(F)F)c2)CS1	3 (3: 0.2-1 mg/L)	3 (3: 0.2-1 mg/L)	2 (2: 1-5 mg/L)	3 (3: 0.2-1 mg/L)	3 (3: 0.2-1 mg/L)	1 (1: ≥20 mg/L)	2 (2: 5-20 mg/L)	2 (2: 1-5 mg/L)	2 (2: 5-20 mg/L)	2 (2: 5-20 mg/L)	2 (2: 5-20 mg/L)	2 (2: 5-20 mg/L)	3 (3: 1-5 mg/L)	1 (1: ≥20 mg/L)	2 (2: 5-20 mg/L)	2 (2: 5-20 mg/L)	2 (2: 5-20 mg/L)
CCc1cccc(COCCCCC2=NN=C(N)SC2)c1	4 (4: <0.2 mg/L)	4 (4: <0.2 mg/L)	4 (4: <0.2 mg/L)	4 (4: <0.2 mg/L)	3 (3: 0.2-1 mg/L)	2 (2: 5-20 mg/L)	2 (2: 5-20 mg/L)	4 (4: <0.2 mg/L)	4 (4: <1 mg/L)	2 (2: 5-20 mg/L)	2 (2: 5-20 mg/L)	4 (4: <1 mg/L)	4 (4: <1 mg/L)	2 (2: 5-20 mg/L)	4 (4: <1 mg/L)	3 (3: 1-5 mg/L)	2 (2: 5-20 mg/L)
NC1=NN=C(CCCCOCc2cccc(-c3ccccc3)c2)CS1	1 (1: ≥5 mg/L)	2 (2: 1-5 mg/L)	2 (2: 1-5 mg/L)	2 (2: 1-5 mg/L)	1 (1: ≥5 mg/L)	1 (1: ≥20 mg/L)	1 (1: ≥20 mg/L)	2 (2: 1-5 mg/L)	2 (2: 5-20 mg/L)	1 (1: ≥20 mg/L)	2 (2: 5-20 mg/L)	2 (2: 5-20 mg/L)	2 (2: 5-20 mg/L)	1 (1: ≥20 mg/L)	2 (2: 5-20 mg/L)	2 (2: 5-20 mg/L)	1 (1: ≥20 mg/L)
NC1=NN=C(CCCCOCc2ccc(Cl)c(F)c2)CS1	4 (4: <0.2 mg/L)	4 (4: <0.2 mg/L)	4 (4: <0.2 mg/L)	4 (4: <0.2 mg/L)	4 (4: <0.2 mg/L)	2 (2: 5-20 mg/L)	4 (4: <1 mg/L)	4 (4: <0.2 mg/L)	4 (4: <1 mg/L)	4 (4: <1 mg/L)	3 (3: 1-5 mg/L)	4 (4: <1 mg/L)	4 (4: <1 mg/L)	4 (4: <1 mg/L)	4 (4: <1 mg/L)	4 (4: <1 mg/L)	3 (3: 1-5 mg/L)
